Source: ChEMBL document CHEMBL1201862, “PubChem BioAssay data set” (2004)
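Tested at 5 concentrations; 48 h exposure; 96-well plates; endpoints linearly interpolated, else capped at highest concentration. GI50 = concentration required for 50% inhibition of growth.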 The source made the active and inactive calls. No stated cut-off is given here; in the data, active = GI50 up to about 1.1 µM and inactive = higher.

Key:
Test in all cases: NCI tumour cell line growth inhibition, 48 h
A498 = test system: A498
Hs-578T = test system: Hs-578T
MDA-N = test system: MDA-N
HT-29 = test system: HT-29
MDA-MB-435 = test system: MDA-MB-435
MOLT-4 = test system: MOLT-4
M14 = test system: M14
IGROV-1 = test system: IGROV-1
TK-10 = test system: TK-10
HCC 2998 = test system: HCC 2998
SK-OV-3 = test system: SK-OV-3
Malme-3M = test system: Malme-3M
OVCAR-3 = test system: OVCAR-3
BT-549 = test system: BT-549
MCF7 = test system: MCF7
SF-539 = test system: SF-539
OVCAR-5 = test system: OVCAR-5
HCT-15 = test system: HCT-15
MDA-MB-231 = test system: MDA-MB-231
SW-620 = test system: SW-620
NCI-H460 = test system: NCI-H460
HL-60 = test system: HL-60
A549 = test system: A549
EKVX = test system: EKVX
CAKI-1 = test system: CAKI-1
NCI/ADR-RES = test system: NCI/ADR-RES
SK-MEL-5 = test system: SK-MEL-5
OVCAR-8 = test system: OVCAR-8
DU-145 = test system: DU-145
LOX IMVI = test system: LOX IMVI
HOP-92 = test system: HOP-92
OVCAR-4 = test system: OVCAR-4
HCT-116 = test system: HCT-116
NCI-H23 = test system: NCI-H23
SN12C = test system: SN12C
T47D = test system: T47D
KM12 = test system: KM12
UO-31 = test system: UO-31
ACHN = test system: ACHN
NCI-H522 = test system: NCI-H522
UACC-257 = test system: UACC-257
UACC-62 = test system: UACC-62
SF-268 = test system: SF-268
CCRF-CEM = test system: CCRF-CEM
K562 = test system: K562
SK-MEL-2 = test system: SK-MEL-2
786-0 = test system: 786-0
SK-MEL-28 = test system: SK-MEL-28
NCI-H226 = test system: NCI-H226
U-251 = test system: U-251
HOP-62 = test system: HOP-62
PC-3 = test system: PC-3
RPMI-8226 = test system: RPMI-8226
SNB-19 = test system: SNB-19
COLO 205 = test system: COLO 205
SNB-75 = test system: SNB-75
SF-295 = test system: SF-295
RXF 393 = test system: RXF 393

## Fc1ccc(C(OCCN2CC3CC2CN3CCCc2ccccc2)c2ccc(F)cc2)cc1 (centres undefined)
A498
  GI50: 4.98 µM (inactive)
Hs-578T
  GI50: 10.1 µM (inactive)
MDA-N
  GI50: 6.27 µM (inactive)
HT-29
  GI50: 3.85 µM (inactive)
MDA-MB-435
  GI50: 5.3 µM (inactive)
MOLT-4
  GI50: 3.61 µM (inactive)
M14
  GI50: 2.02 µM (inactive)
IGROV-1
  GI50: 10.1 µM (inactive)
TK-10
  GI50: 11.2 µM (inactive)
HCC 2998
  GI50: 2.38 µM (inactive)
SK-OV-3
  GI50: 15 µM (inactive)
Malme-3M
  GI50: 2.93 µM (inactive)
OVCAR-3
  GI50: 9.98 µM (inactive)
BT-549
  GI50: 11.8 µM (inactive)
MCF7
  GI50: 6.08 µM (inactive)
SF-539
  GI50: 2.37 µM (inactive)
OVCAR-5
  GI50: 11.3 µM (inactive)
HCT-15
  GI50: 4.63 µM
MDA-MB-231
  GI50: 4.61 µM (inactive)
SW-620
  GI50: 6.53 µM (inactive)
NCI-H460
  GI50: 4.48 µM (inactive)
HL-60
  GI50: 2.71 µM (inactive)
A549
  GI50: 12 µM (inactive)
EKVX
  GI50: 6.01 µM (inactive)
CAKI-1
  GI50: 10.1 µM (inactive)
NCI/ADR-RES
  GI50: 5.64 µM (inactive)
SK-MEL-5
  GI50: 1.84 µM (inactive)
OVCAR-8
  GI50: 3.23 µM (inactive)
DU-145
  GI50: 10.1 µM (inactive)
LOX IMVI
  GI50: 5.87 µM (inactive)
HOP-92
  GI50: 11.9 µM (inactive)
OVCAR-4
  GI50: 8.95 µM (inactive)
HCT-116
  GI50: 5.86 µM (inactive)
NCI-H23
  GI50: 11.4 µM (inactive)
SN12C
  GI50: 10.3 µM (inactive)
T47D
  GI50: 2.07 µM (inactive)
KM12
  GI50: 4.85 µM (inactive)
UO-31
  GI50: 12.3 µM (inactive)
ACHN
  GI50: 11.5 µM (inactive)
NCI-H522
  GI50: 7.98 µM (inactive)
UACC-257
  GI50: 3.69 µM (inactive)
UACC-62
  GI50: 11.1 µM (inactive)
SF-268
  GI50: 10.2 µM (inactive)
CCRF-CEM
  GI50: 4.52 µM (inactive)
K562
  GI50: 3.11 µM (inactive)
SK-MEL-2
  GI50: 9.95 µM (inactive)
786-0
  GI50: 5.53 µM (inactive)
SK-MEL-28
  GI50: 2.96 µM (inactive)
NCI-H226
  GI50: 7.23 µM (inactive)
U-251
  GI50: 6.71 µM (inactive)
HOP-62
  GI50: 11.4 µM (inactive)
PC-3
  GI50: 5.98 µM (inactive)
RPMI-8226
  GI50: 2.88 µM (inactive)
SNB-19
  GI50: 13.3 µM (inactive)
COLO 205
  GI50: 1.68 µM (inactive)
SNB-75
  GI50: 0.955 µM (active)
SF-295
  GI50: 6.19 µM (inactive)

## Cc1ccc(S(=O)(=O)CN2C(=O)C(c3ccccc3)(c3ccccc3)C23OC(c2ccc(Cl)cc2)=CC3=O)cc1 (centres undefined)
A498
  GI50: > 10 µM (inactive)
Hs-578T
  GI50: > 10 µM (inactive)
MDA-N
  GI50: > 10 µM (inactive)
HT-29
  GI50: > 10 µM (inactive)
MDA-MB-435
  GI50: > 10 µM (inactive)
MOLT-4
  GI50: > 10 µM (inactive)
M14
  GI50: > 10 µM (inactive)
IGROV-1
  GI50: > 10 µM (inactive)
TK-10
  GI50: > 10 µM (inactive)
HCC 2998
  GI50: > 10 µM (inactive)
SK-OV-3
  GI50: > 10 µM (inactive)
Malme-3M
  GI50: > 10 µM (inactive)
OVCAR-3
  GI50: > 10 µM (inactive)
BT-549
  GI50: > 10 µM (inactive)
MCF7
  GI50: > 10 µM (inactive)
SF-539
  GI50: > 10 µM (inactive)
OVCAR-5
  GI50: > 10 µM (inactive)
HCT-15
  GI50: > 10 µM
MDA-MB-231
  GI50: > 10 µM (inactive)
SW-620
  GI50: > 10 µM (inactive)
NCI-H460
  GI50: > 10 µM (inactive)
HL-60
  GI50: > 10 µM (inactive)
A549
  GI50: > 10 µM (inactive)
EKVX
  GI50: > 10 µM (inactive)
CAKI-1
  GI50: > 10 µM (inactive)
NCI/ADR-RES
  GI50: > 10 µM (inactive)
SK-MEL-5
  GI50: > 10 µM (inactive)
OVCAR-8
  GI50: > 10 µM (inactive)
DU-145
  GI50: > 10 µM (inactive)
LOX IMVI
  GI50: > 10 µM (inactive)
HOP-92
  GI50: > 10 µM (inactive)
OVCAR-4
  GI50: > 10 µM (inactive)
HCT-116
  GI50: > 10 µM (inactive)
NCI-H23
  GI50: > 10 µM (inactive)
SN12C
  GI50: > 10 µM (inactive)
T47D
  GI50: > 10 µM (inactive)
KM12
  GI50: > 10 µM (inactive)
UO-31
  GI50: > 10 µM (inactive)
ACHN
  GI50: > 10 µM (inactive)
NCI-H522
  GI50: > 10 µM (inactive)
UACC-257
  GI50: > 10 µM (inactive)
UACC-62
  GI50: > 10 µM (inactive)
SF-268
  GI50: > 10 µM (inactive)
CCRF-CEM
  GI50: > 10 µM (inactive)
K562
  GI50: > 10 µM (inactive)
SK-MEL-2
  GI50: > 10 µM (inactive)
786-0
  GI50: > 10 µM (inactive)
SK-MEL-28
  GI50: > 10 µM (inactive)
NCI-H226
  GI50: > 10 µM (inactive)
U-251
  GI50: > 10 µM (inactive)
HOP-62
  GI50: > 10 µM (inactive)
PC-3
  GI50: 4.07 µM (inactive)
SNB-19
  GI50: > 10 µM (inactive)
RXF 393
  GI50: > 10 µM (inactive)
COLO 205
  GI50: > 10 µM (inactive)
SNB-75
  GI50: > 10 µM (inactive)
SF-295
  GI50: > 10 µM (inactive)
